According to patent US8173685B2, “Pleuromutilin derivatives and their use as antimicrobials” (Nabriva Therapeutics AG, priority 2007, dated 2012):
≈ marks a conversion by molar mass, not a printed value. Like-named read-outs stand apart in the source and are kept apart here.

Assays:
Format in all cases: cell-based
[1] = test system: Moraxella catarrhalis ATCC43618 (strain B407); assay: MIC determination according to CLSI, Moraxella catarrhalis ATCC43618
Excerpt: (§1) For example, the compounds of the present invention show antimicrobial, e.g. antibacterial, activity against gram positive bacteria, such as coagulase-positive and coagulase-negative Staphylococci, e.g. Staphylococcus aureus, Styphylococcus epidermis, Staphylococcus haemolyticus, Streptococci, e.g. Streptococcus pyogenes, Streptococcus pneumoniae, Streptococcus agalacticae, Enterococci, e.g. Enterococcus faecium and Moraxellaceae, e.g. Moraxella catarrhalis, Pasteurellaceae, e.g. Haemophilus influenzae, as well as against Mycoplasmactaceae, Chlamydiaceae, e.g. Chlamydia trachomatis, Chlamydia pneumoniae and obligatory anaerobes, e.g. Bacteroides fragilis, Clostridium difficile; in vitro in the Agar Dilution Test or Microdilution Test according to the Climical and Laboratory Standards Institute (CLSI, former National Committee for Clinical Laboratory Standards (NCCLS) 2006, Document M7-A7 Vol. 26, No. 2: “Methods for dilution Antimicrobial Susceptibility Tests for Bacteria that Grow Aerobically—Seventh Edition, Approved Standard”; and in the in vitro determination of the antibacterial activity against anaerobic bacteria according to National Committee for Clinical Laboratory Standards (NCCLS) VOL. 24, No. 2, M11-A5, Methods for Antimicrobal Susceptibility Testing of Anaerobic Bacteria; Approved Standard; Sixth Edition (2004) and in vivo in the septicaemic mouse model against Staphylococcus aureus.
(§2) The antibacterial activity expressed as minimal inhibitory concentration (MIC) was determined according to the approved standard reference recommendations of CLSI (former NCCLS).

[2] = test system: Enterococcus faecalis ATCC51299 (strain B5); assay: MIC determination according to CLSI, Enterococcus faecalis ATCC51299
Excerpt: as §1, §2

[3] = test system: Staphylococcus aureus (MSSA) ATCC29213 (strain B7); assay: MIC determination according to CLSI, Staphylococcus aureus (MSSA) ATCC29213
Excerpt: as §1, §2

[4] = test system: Staphylococcus aureus, Enterococcus faecalis, Streptococcus pneumoniae, Moraxella catarrhalis and Escherichia coli; assay: Antibacterial activity (MIC) against the panel of clinical relevant bacterial pathogens
Protocol: as §2

[5] = test system: Staphylococcus aureus (MSSA) ATCC10390 (strain B6); assay: MIC determination according to CLSI, Staphylococcus aureus (MSSA) ATCC10390
Excerpt: as §1, §2

[6] = test system: Escherichia coli ATCC25922 (strain B1); assay: MIC determination according to CLSI, Escherichia coli ATCC25922
Excerpt: as §1, §2

[7] = test system: Streptococcus pneumoniae ATCC49619 (strain B11); assay: MIC determination according to CLSI, Streptococcus pneumoniae ATCC49619
Excerpt: as §1, §2

[8] = test system: Enterococcus faecalis ATCC29212 (strain B4); assay: MIC determination according to CLSI, Enterococcus faecalis ATCC29212
Excerpt: as §1, §2

[9] = ATCC43618, strain B407, read-out: MIC
[10] = ATCC51299, strain B5, read-out: MIC
[11] = Staphylococcus aureus (MSSA), ATCC29213, strain B7, read-out: MIC
[12] = Staphylococcus aureus (MSSA), ATCC10390, strain B6, read-out: MIC
[13] = ATCC25922, strain B1, read-out: MIC
[14] = ATCC49619, strain B11, read-out: MIC
[15] = ATCC29212, strain B4, read-out: MIC

| SMILES | MIC [1, 9] [µg/mL] | MIC [2, 10] [µg/mL] | MIC [3, 11] [µg/mL] | factor by which MICs are lower than the MICs of examples 39-41 ([4]; against at least one of the strains shown in Table 1) | activity against the clinical relevant bacterial pathogens (in words) ([4]; in vitro, S. aureus, E. faecalis, S. pneumoniae, M. catarrhalis, E. coli) | MIC [5, 12] [µg/mL] | MIC [6, 13] [µg/mL] | MIC [7, 14] [µg/mL] | MIC [8, 15] [µg/mL] | MIC ([1]; ATCC43618) [µg/mL] | MIC ([2]; ATCC51299) [µg/mL] | MIC ([3]; Staphylococcus aureus) [µg/mL] | MIC ([5]; Staphylococcus aureus) [µg/mL] | MIC ([6]; ATCC25922) [µg/mL] | MIC ([7]; ATCC49619) [µg/mL] | MIC ([8]; ATCC29212) [µg/mL] |
| --- | --- | --- | --- | --- | --- | --- | --- | --- | --- | --- | --- | --- | --- | --- | --- | --- |
| C=C[C@]1(C)C[C@@H](OC(=O)CSc2cccc(CNC(=O)[C@H]3CCCCN3)c2)[C@]2(C)C(C)CCC3(CCC(=O)C32)[C@@H](C)[C@@H]1O (stereo partly drawn) [Example 1, 14-O-[(3-{[((R)-Piperidine-2-carbonyl)-amino]-methyl}-phenylsulfanyl)-acetyl]-mutilin] | 0.0125 (≈ 0.0205 µM) | 1.6 (≈ 2.62 µM) | ≤ 0.0125 | ≥ 2 | very good activity | ≤ 0.0125 | 12.8 (≈ 21 µM) | ≤ 0.0025 | 1.6 (≈ 2.62 µM) |  |  |  |  |  |  |  |
| C=C[C@]1(C)C[C@@H](OC(=O)CSc2cccc(C)c2)[C@]2(C)C(C)CCC3(CCC(=O)C32)[C@@H](C)[C@@H]1O (stereo partly drawn) [Example 39, 14-O-[(3-Methyl-phenylsulfanyl)-acetyl]-mutilin] | 0.0125 (≈ 0.0258 µM) | > 6.4 | 0.05 (≈ 0.103 µM) |  |  | 0.025 (≈ 0.0516 µM) | > 6.4 | 0.16 (≈ 0.33 µM) | > 6.4 |  |  |  |  |  |  |  |
| C=C[C@]1(C)C[C@@H](OC(=O)COc2cccc(C)c2)[C@]2(C)[C@H](C)CC[C@]3(CCC(=O)[C@H]32)[C@@H](C)[C@@H]1O [Example 40, 14-O-[(3-Methyl-phenoxy)-acetyl]-mutilin] |  |  |  |  |  |  |  |  |  | 0.0125 (≈ 0.0267 µM) | > 6.4 | 0.05 (≈ 0.107 µM) | 0.05 (≈ 0.107 µM) | > 6.4 | 0.64 (≈ 1.37 µM) | > 6.4 |
| CC[C@]1(C)C[C@@H](OC(=O)COc2cccc(C)c2)[C@]2(C)C(C)CCC3(CCC(=O)C32)[C@@H](C)[C@@H]1O (stereo partly drawn) [Example 41, 14-O-[(3-Methyl-phenoxy)-acetyl]-19,20-dihydromutilin] |  |  |  |  |  |  |  |  |  | 0.025 (≈ 0.0531 µM) | > 6.4 | 0.1 (≈ 0.212 µM) | 0.05 (≈ 0.106 µM) | > 6.4 | > 0.64 | > 6.4 |
